Experimental data from US20060128653A1, “Pharmaceutical formulation of decitabine” (priority 2004, published 2006).
≈ marks a conversion by molar mass, not a printed value. Like-named read-outs stand apart in the source and are kept apart here.

What was measured:
[1] = Solubility in 40% w/w cyclodextrin solutions versus potassium phosphate buffer; type: physicochemical; details: thermodynamic from solid, room temperature (20-25° C.)
Method: (§1) Aqueous solutions of cyclodextrin at pH 6.7-7.2 were prepared by dissolving 4 parts of cyclodextrins (hydroxypropyl α-cyclodextrin (HPACD), hydroxypropyl β-cyclodextrin (HPBCD), β-cyclodextrin (BCD), hydroxypropyl γ-cyclodextrin (HPGCD), or CAPTISOL) in 6 parts of potassium phosphate buffer (50 mM KH2PO4, pH 7.0), resulting solutions of 40% w/w cyclodextrins.
as §1, with “(HPBCD),” for “(HPBCD), β-cyclodextrin (BCD),”

[2] = UV spectroscopy of decitabine-HPBCD complex formation; type: physicochemical; details: absorbance at 262 nm, room temperature, 1:1 stoichiometry assumed, least-squares fit
[3] = Chemical stability of decitabine in cyclodextrin solutions (HPLC potency); type: physicochemical; details: 2-8° C. and 25° C., percentage of total peak areas at 220 nm, FIGS. 1 and 2
Method: The chemical stability of decitabine in the cyclodextrin solutions and in the phophate buffer as prepared above was determined. The initial decitabine concentration for all the solutions was 17-18 mg/mL at the beginning of the experiment at 2-8° C.; 9-10 mg/mL at the beginning of the experiment at 25° C. Decitabine potency was assayed by a HPLC method, and expressed as a percentage of total peak areas at 220 nm.

[4] = cited from earlier work
[5] = 40% w/w Captisol aqueous solution, aqueous with cosolvent or surfactant or cyclodextrin, 40% Captisol (w/w, pH 6.7)
[6] = 40% w/w HPACD aqueous solution, aqueous with cosolvent or surfactant or cyclodextrin, 40% HPACD (w/w, pH 7.0)
[7] = 40% w/w HPBCD aqueous solution, aqueous with cosolvent or surfactant or cyclodextrin, 40% HPBCD (w/w, pH 7.2)
[8] = potassium phosphate buffer, aqueous buffer, KPi (50 mM KH2PO4, pH 7.0)

Row | SMILES | solubility [1, 5] [mg/mL] | solubility [1, 6] [mg/mL] | solubility [1, 7] [mg/mL] | solubility ([1]; 40% w/w HPGCD aqueous solution, aqueous with cosolvent or surfactant or cyclodextrin, 40% HPGCD (w/w, pH 7.0)) [mg/mL] | solubility [1, 8] [mg/mL] | Complex formation constant Kf for decitabine-HPBCD complex [2] [M⁻¹] | Stability of decitabine in aqueous solution with cyclodextrins as excipients [3] | Steady-state plasma concentration (estimated) ([4]; 6-hour infusion of 100 mg/m^2) [µg/mL] | Range of plasma concentrations ([4]; 600-mg/m^2 infusion) [µg/mL] | Terminal half-life ([4]; humans, measured by bioassay) [min] | Half-life after discontinuing the infusion ([4]; humans) [min] | Total urinary excretion, % of the administered dose ([4]; humans) | Volume of distribution ([4]; humans) | Steady-state plasma concentration (estimated) ([4]; infusion rate of 1 mg/kg/h) [µg/mL] | Plasma concentration ([4]; infusion times of 40-60 hours, infusion rate 1 mg/kg/h) [ng/mL] | Penetration into the cerebrospinal fluid, % of the plasma concentration ([4]; man, end of a 36-hour intravenous infusion) | Plasma concentration ([4]; patients, 100 mg/m^2 as a 3-hour infusion)
1 | Nc1ncn([C@@H]2O[C@H](CO)[C@@H](O)[C@H]2O)c(=O)n1 [5-azacytidine] | 26 (≈ 106 mM) | 20 (≈ 81.9 mM) | 26 (≈ 106 mM) | 22 (≈ 90.1 mM) | 19 (≈ 77.8 mM) |  |  |  |  |  |  |  |  |  |  |  | 
2 | Nc1ncn([C@H]2C[C@H](O)[C@@H](CO)O2)c(=O)n1 [decitabine, 5-aza-2′-deoxycytidine] | 42 (≈ 184 mM) | 18 (≈ 78.9 mM) | 44 (≈ 193 mM) |  | 18 (≈ 78.9 mM) | 23 | dramatically improve the stability | 0.31 to 0.39 | 0.41 to 16 | 10 to 35 | 12 to 20 | less than 1% | about 4.6 L/kg | 0.2 to 0.5 | 430 to 760 | 14-21% | about 0.4 μg/ml
